Measured values taken from USRE38604E1, “Fluid therapy with L-lactate and/or pyruvate anions” (BTG International Limited, priority 1984, dated 2004).

How the values were obtained:
[1] = patient undergoing continuous cyclic peritoneal dialysis; severe recurrent metabolic alkalemia secondary to it; cited from earlier work
brain tissue = settings: rat, aqueous 20 mM/l, parenteral

Compound	adverse effect of inclusion in routine dialysis fluids [1]	effect on brain tissue (brain tissue)	outcome with continued administration (coma, cerebral edema, death) (brain tissue)
CC(O)C(=O)O (racemic) [d,l-lactate]	encephalopathy		
C[C@@H](O)C(=O)O [d-lactate]		swelling of brain tissue is observed	coma develops, the cerebral edema worsens and death ensues
C[C@H](O)C(=O)O [l-lactate]			does not cause coma or death
